Measurements: ChEMBL document CHEMBL3046649, “Fungitoxic and Phytotoxic Activities of Cinnamic Acid Esters and Amides” (2000)

Experiments:
[1] = tested on: Brassica rapa subsp. chinensis; test: whole plant or invertebrate; type: functional; conditions: 72 h, read-out: GI
Description: Phytotoxicity against Brassica rapa subsp. chinensis assessed as growth inhibition of hypocotyl at 100 ppm treated to seeds after 3 days

[2] = tested on: Brassica rapa subsp. chinensis; test: whole plant or invertebrate; type: functional; conditions: 72 h, read-out: GI; remark: listed apart in the source
Description: Phytotoxicity against Brassica rapa subsp. chinensis assessed as growth inhibition of radicle at 100 ppm treated to seeds after 3 days

Pythium [3] = test: microbe, parasite or virus in culture; type: functional; conditions: read-out: GI
Description: Fungitoxic activity against Pythium sp. assessed as mycelial growth inhibition at 100 ppm after 4 to 5 days by agar dilution method

Athelia rolfsii [4] = test: microbe, parasite or virus in culture; type: functional; conditions: Agroathelia rolfsii, read-out: GI
Description: Fungitoxic activity against Athelia rolfsii assessed as mycelial growth inhibition at 100 ppm after 4 to 5 days by agar dilution method

Athelia rolfsii [5] = test: Fungitoxic activity against Athelia rolfsii assessed as mycelial growth inhibition at 10 ppm after 4 to 5 days by agar dilution method; type: functional; conditions: Agroathelia rolfsii; read-out: GI
Pythium [6] = test: Fungitoxic activity against Pythium sp. assessed as mycelial growth inhibition at 10 ppm after 4 to 5 days by agar dilution method; conditions: read-out: GI

Structure (SMILES)	inhibition of growth at 100 ppm [1]	inhibition of growth at 100 ppm [2]	inhibition of growth at 100 ppm (Pythium [3])	inhibition of growth at 100 ppm (Athelia rolfsii [4])	inhibition of growth at 10 ppm (Athelia rolfsii [5])	inhibition of growth at 10 ppm (Pythium [6])
COC(=O)/C=C/c1ccc(C(C)C)cc1	38%	21%	82%	97%	35%	7%
CC(C)c1ccc(/C=C/C(=O)OCCOc2ccccc2)cc1	32%	0%	46%	64%	8%	3%
CC(C)=CCCC(C)CCOC(=O)/C=C/c1ccc(Cl)cc1 (stereo not given) [3,7-DIMETHYLOCT-6-ENYL 3-(4-CHLOROPHENYL)ACRYLATE]	26%	15%	64%	83%	19%	8%
CC(C)=CCCC(C)CCOC(=O)/C=C/c1ccc(C(C)C)cc1 (stereo not given) [3,7-DIMETHYLOCT-6-ENYL 3-(4-ISOPROPYLPHENYL)ACRYLATE]	39%	0%	69%	87%	9%	12%
CC(C)CNC(=O)/C=C/c1ccc(Cl)cc1 [3-(4-CHLOROPHENYL)-N-ISOBUTYLACRYLAMIDE]	43%	69%	73%	89%	33%	50%
CC(C)NC(=O)/C=C/c1ccc(Cl)cc1 [3-(4-CHLOROPHENYL)-N-ISOPROPYLACRYLAMIDE]	26%	57%	45%	94%	66%	20%
CCCNC(=O)/C=C/c1ccc(Cl)cc1 [3-(4-CHLOROPHENYL)-N-PROPYLACRYLAMIDE]	43%	64%	88%	97%	32%	30%
C=CCc1ccc(OC(=O)/C=C/c2ccc(Cl)cc2Cl)c(OC)c1 [4-ALLYL-2-METHOXYPHENYL 3-(2,4-DICHLOROPHENYL)ACRYLATE]	28%	6%	67%	87%	27%	23%
C=CCc1ccc(OC(=O)/C=C/c2ccc(Cl)cc2)c(OC)c1 [4-ALLYL-2-METHOXYPHENYL 3-(4-CHLOROPHENYL)ACRYLATE]	38%	49%	89%	89%	14%	8%
C=CCc1ccc(OC(=O)/C=C/c2ccc(C(C)C)cc2)c(OC)c1 [4-ALLYL-2-METHOXYPHENYL 3-(4-ISOPROPYLPHENYL)ACRYLATE]	40%	0%	62%	86%	8%	8%
CCOC(=O)/C=C/c1ccc(Cl)cc1Cl [ETHYL 3-(2,4-DICHLOROPHENYL)ACRYLATE]	54%	29%	76%	93%	32%	19%
CCOC(=O)/C=C/c1ccc(Cl)cc1 [ETHYL 3-(4-CHLOROPHENYL)ACRYLATE]	43%	47%	99%	97%	19%	8%
CCOC(=O)/C=C/c1ccc(C(C)C)cc1 [ETHYL 3-(4-ISOPROPYLPHENYL)ACRYLATE]	44%	0%	92%	78%	24%	14%
CCOC(=O)/C=C/c1ccccc1 [ETHYL CINNAMATE]	26%	0%	57%	63%	36%	14%
CC(C)OC(=O)/C=C/c1ccc(Cl)cc1Cl [ISOPROPYL 3-(2,4-DICHLOROPHENYL)ACRYLATE]	42%	54%	71%	93%	50%	20%
